According to US5486516A, “Furopyrimidine derivatives” (DowElanco, priority 1993, dated 1996):

Experiments:
[1] = system: Pyricularia oryzae (rice blast); assay: whole plant or invertebrate; assay type: in vivo; conditions: foliar, read-out: RICE BLAST control rating
[2] = system: Southern corn rootworm (Diabrotica undecimpuctata howardi Barber); assay: Mite/insect screen, corn rootworm; assay type: in vivo; conditions: soil; for mortality at 12 ppm / mortality at 24 ppm: Diabrotica, read-out: CRW results (percent mortality); for mortality at 12 ppm: CRW rate 12.00 ppm
Experimental: (§1) The compounds of Examples were tested for miticidal and insecticidal activity in the following mite/insect screen.
(§2) Each test compound was formulated by dissolving the compound in acetone/alcohol (50:50) mixture containing 23 g of "TOXIMUL R" (sulfonate/nonionic emulsifier blend) and 13 g of "TOXIMUL S" (sulfonate/nonionic emulsifier blend) per liter. These mixtures were then diluted with water to give the indicated concentrations.
Activity on Southern corn rootworm (Diabrotica undecimpuctata howardi Barber) was evaluated by adding two ml of tap water, a presoaked corn seed, and 15 g of dry sandy soil to a one ounce plastic container. The soil was treated with 1 mL of test solution containing a predetermined concentration of test compound. After six to 12 hours of drying, five 2-3 instar corn rootworm larvae were added to the individual cups, which were then capped and held at 23° C.
(§3) After standard exposure periods, percent mortality and phytotoxicity were evaluated. […] The following abbreviations are used in Table 3:
CRW refers to corn rootworm

[3] = system: southern armyworm (Spodopetra eridania Cramer); assay: Mite/insect screen, Southern armyworm; assay type: in vivo; conditions: sprayed leaves; for mortality at 200 ppm / mortality at 400 ppm: Spodoptera eridania, read-out: SAW results (percent mortality); for mortality at 200 ppm: rate 200 ppm
Experimental: as §1, §2
(§4) Twospotted spider mites (Tetranychus urticae Koch) and melon aphids (Aphis gossvpii Glover) were introduced on squash cotyledons and allowed to establish on both leaf surfaces. Other plants in the same treatment pot were left uninfested. The leaves were then sprayed with 5 ml of test solution using a DeVilbiss atomizing sprayer at 10 psi. Both surfaces of the leaves were covered until runoff, and then allowed to dry for one hour. Two uninfested leaves were then excised and placed into a Petri dish containing larval southern armyworm (Spodopetra eridania Cramer).
as §3
SAW refers to Southern armyworm

[4] = system: Twospotted spider mites (Tetranychus urticae Koch); assay: Mite/insect screen, twospotted spider mites; assay type: in vivo; conditions: Tetranychus urticae, sprayed leaves, read-out: SM results (percent mortality); for mortality at 200 ppm: rate 200 ppm; for mortality at 400 ppm: rate 400 ppm
Experimental: as §1, §2, §4, §3
SM refers to twospotted spider mites

[5] = system: melon aphids (Aphis gossvpii Glover); assay: Mite/insect screen, melon aphids; assay type: in vivo; conditions: sprayed leaves; for mortality at 200 ppm / mortality at 400 ppm: Aphis, read-out: MA results (percent mortality); for mortality at 200 ppm: rate 200 ppm
Experimental: as §1, §2, §4, §3
MA refers to melon aphids.

[6] = system: Puccinia recondita tritici (leaf rust); assay: Plant pathology screen (Test 1), leaf rust on wheat; conditions: in Triticum aestivum, foliar, read-out: LEAF RUST control rating
Experimental: This screen was used to evaluate the efficacy of the present compounds against a variety of different organisms that cause plant diseases.
(§5) The test compounds were formulated for application by dissolving 50 mg of the compound into 1.25 ml of solvent. The solvent was prepared by mixing 50 ml of "Tween 20" (polyoxyethylene (20) sorbitan monolaurate emulsifier) with 475 ml of acetone and 475 ml of ethanol. The solvent/compound solution was diluted to 125 ml with deionized water. The resulting formulation contains 400 ppm test chemical. Lower concentrations were obtained by serial dilution with the solvent-surfactant mixture.
The formulated test compounds were applied by foliar spray.
(§6) The formulated technical compounds were sprayed on all foliar surfaces of the host plants (or cut berry) to past run-off. Single pots of each host plant were placed on raised, revolving pedestals in a fume hood. Test solutions were sprayed on all foliar surfaces. All treatments were allowed to dry and the plants were inoculated with the appropriate pathogens within 2-4 hours.
(§7) The effectiveness of test compounds in controlling disease was rated using the following scale.

[7] = system: Pseudoperonospora cubensis (downy mildew); assay: Plant pathology screen (Test 1), downy mildew on squash; conditions: foliar, read-out: DOWN MDEW control rating
Experimental: as §5
The formulated test compounds were applied by foliar spray. The following plant pathogens and their corresponding plants were employed.
as §6, §7

[8] = system: Erysiphe graminis tritici (powdery mildew); assay: Plant pathology screen (Test 1), powdery mildew on wheat; conditions: Blumeria graminis, in Triticum aestivum, foliar, read-out: POWD MDEW control rating
[9] = system: Botrytis cinerea (gray mold); assay: Plant pathology screen (Test 1), gray mold on grape berries; conditions: read-out: GRAY MOLD control rating

SMILES | pest or weed control at 400 µg/mL [1] | mortality at 12 ppm [2] | mortality at 24 ppm ([2]; CRW rate 24.00 ppm) | mortality at 200 ppm [3] | mortality at 400 ppm ([3]; rate 400 ppm) | mortality at 200 ppm [4] | mortality at 400 ppm [4] | mortality at 200 ppm [5] | mortality at 400 ppm ([5]; rate 400 ppm) | pest or weed control at 400 µg/mL [6] | pest or weed control at 400 µg/mL [7] | pest or weed control at 400 µg/mL [8] | pest or weed control at 400 µg/mL [9] | CRW results (percent mortality) ([2]; CRW rate 24.00 ppm) | SAW results (percent mortality) ([3]; rate 400 ppm) | MA results (percent mortality) ([5]; rate 400 ppm)
Cc1oc2ncnc(OCCN3C[C@@H](C)O[C@H](C)C3)c2c1C (relative stereo) [Example 58, Trans-5,6-dimethyl-4-[2-(2,6-dimethyl-4-morpholinyl)ethoxy]furo[2,3-d]pyrimidine] | 0 to 19% | 0% | 0% | 0% | 0% | 0% | 0% | 0% | 0% | 20 to 89% | 20 to 89% | 0 to 19% | 0 to 19% | – | – | –
Cc1oc2ncnc(NCCc3cccc(C(F)(F)F)c3)c2c1C [Example 23, 5,6-dimethyl-N-[2-[3-(trifluoromethyl)phenyl]ethyl]furo[2,3-d]pyrimidin-4-amine] | 0 to 19% | 100% | 0% | 0% | 0% | 0% | 0% | 0% | 0% | 20 to 89% | 0 to 19% | 0 to 19% | 0 to 19% | – | – | –
CCCC(C)(CC)Oc1ccc(CCOc2ncnc3oc(C)c(C)c23)cc1 (stereo not drawn) [Example 74, 5,6-dimethyl-4-[2-[4-(1-ethyl-1-methylbutoxy)phenyl]ethoxy]furo[2,3-d]pyrimidine] | 0 to 19% | – | 0% | – | 0% | – | 100% | – | 90% | 0 to 19% | 20 to 89% | 0 to 19% | 0 to 19% | – | – | –
COc1ccccc1Oc1ncnc2oc(C)c(C)c12 [Example 28, 5,6-dimethyl-4-(2-methoxyphenoxy)furo[2,3-d]pyrimidine] | 0 to 19% | 0% | 0% | 0% | 0% | 90% | 0% | 30% | 0% | 0 to 19% | 0 to 19% | 0 to 19% | 0 to 19% | – | – | –
COc1ccc(CCNc2ncnc3oc4c(c23)CCCC4)cc1 [Example 30, N-[2-(4-methoxyphenyl)ethyl]-5,6,7,8-tetrahydrobenzofuro[2,3-d]pyrimidin-4-amine] | 0 to 19% | 0% | 0% | 0% | 90% | 0% | 0% | 0% | 0% | 20 to 89% | 20 to 89% | 0 to 19% | 0 to 19% | – | – | –
Cc1oc2ncnc(NCCC3=CCCCC3)c2c1C [Example 72, 5,6-dimethyl-N-[2-(1-cyclohexenyl)ethyl]furo[2,3-d]pyrimidin-4-amine] | 0 to 19% | – | 0% | – | 60% | – | 0% | – | 100% | 90 to 100% | 90 to 100% | 20 to 89% | 0 to 19% | – | – | –
Cc1oc2ncnc(NCCC3CCC4CCCCC4C3)c2c1C (stereo not drawn) [Example 18, N-[2-(decahydro-2-naphthyl)ethyl]-5,6-dimethylfuro[2,3-d]pyrimidin-4-amine] | 0 to 19% | 0% | 0% | 0% | 0% | 0% | 0% | 0% | 0% | 0 to 19% | 0 to 19% | 0 to 19% | 20 to 89% | – | – | –
Cc1oc2ncnc(OCCc3ccccc3C(F)(F)F)c2c1C [Example 76, 5,6-dimethyl-4-[2-[2(trifluoromethyl)phenyl]ethoxy]furo[2,3-d]pyrimidine] | 0 to 19% | – | 60% | – | 0% | – | 0% | – | 0% | 0 to 19% | 20 to 89% | 90 to 100% | 0 to 19% | – | – | –
Cc1cc2c(OCCC34CC5CC(CC(C5)C3)C4)ncnc2o1 [Example 38, 6-methyl-4-[2-(1-adamantyl)ethoxy]furo[2,3-d]pyrimidine] | 0 to 19% | 0% | 0% | 0% | 0% | 0% | 0% | 0% | 0% | 0 to 19% | 0 to 19% | 0 to 19% | 0 to 19% | – | – | –
COc1ccc(CCNc2ncnc3oc(C)c(C)c23)cc1 [Example 1, N-[2-(4-methoxyphenyl)ethyl]-5,6-dimethylfuro[2,3-d]pyrimidin-4-amine] | 90 to 100% | 0% | 100% | 0% | 0% | 0% | 0% | 80% | 0% | 20 to 89% | 20 to 89% | 0 to 19% | 0 to 19% | – | – | –
Cc1cc2c(Oc3ccc(F)cc3)ncnc2o1 [Example 5, 6-methyl-4-(4-fluorophenoxy)furo[2,3-d]pyrimidine] | 0 to 19% | 0% | 0% | 0% | 0% | 0% | 0% | 0% | 0% | 90 to 100% | 0 to 19% | 20 to 89% | 0 to 19% | – | – | –
Cc1oc2ncnc(Sc3ccc(F)cc3)c2c1C [Example 56, 5,6-dimethyl-4-[(4-fluorophenyl)thio]furo[2,3-d]pyrimidine] | 20 to 89% | 0% | 0% | 0% | 0% | 0% | 0% | 0% | 0% | 20 to 89% | 0 to 19% | 20 to 89% | 0 to 19% | – | – | –
Cc1oc2ncnc(NCCc3ccc(C(C)(C)C)cc3)c2c1C [Example 20, N-[2-[4-(t-butyl)phenyl]ethyl]-5,6-dimethylfuro[2,3-d]pyrimidin-4-amine] | 20 to 89% | 0% | 0% | 0% | 0% | 0% | – | 0% | 0% | 90 to 100% | 90 to 100% | 0 to 19% | 0 to 19% | 0% | 0% | 0%
